Our source for the solubility in water values is patent publication EP3454821B1, “MICELLES OF D-ALPHA-TOCOPHERYL POLYETHYLENE GLYCOL 1000 SUCCINATE” (Phytoceutical Limited, priority 2016, dated 2017).

Entries after “also recorded” stand apart in the source; their conditions may differ.

This data set is described as follows: Dissolution of Retinol in water. In kind it is physicochemical. The settings on record: without TPGS. The source says: All attempts to dissolve Retinol in water were unsuccessful except when using a micellar formulation with TPGS, as per the method described in Example 1.
Retinol. No research was undertaken on Objective 2 because Retinol is insoluble in water.

Turning to `CC1=C(/C=C/C(C)=C/C=C/C(C)=C/CO)C(C)(C)CCC1` [Retinol], the solubility in water result is recorded as “insoluble; also recorded: unsuccessful”.
